We go through eight compounds from patent US10768161B2, “Method for ecological risk assessment of heavy metal in river basin sediment based on toxicity effect” (CHINESE RESEARCH ACADEMY OF ENV[…], priority 2015, dated 2020).

The nature of series [1]: Ecological risk assessment of heavy metals in a lake basin sediment. Particulars: for Toxicity response coefficient: Tr^i=S^i*(5/BPI)^x, lake BPI=6.7; for Pollution risk index: ecological risk index Er^i=Tr^i*cf^i for the lake. An excerpt: (8) calculating the toxicity response coefficient Tr^i of the i^th heavy metal according to the formula Tr^i=S^i*(5/BPI)^X one by one, where BPI is the biological yield index of the water body evaluated and the value of x is 1, ½ or 0;
(9) calculating the ecological risk index Er^i of the i^th heavy metal according to the formula Er^i=Tr^i*cf^i one by one, and the resulting Er^i is used to evaluate the ecological risk of a single metal to the assessed river basin: when Er^i<30, the ecological hazard of the i^th heavy metal to the assessed river basin is slight, when 30≤Er^i<60, the ecological hazard of the i^th heavy metal to the assessed river basin is medium, when 60≤Er^i<120, the ecological hazard of the i^th heavy metal to the assessed river basin is strong, when 120≤Er^i<240, the ecological hazard of the i^th heavy metal to the assessed river basin is very strong, when Er^i>240, the ecological hazard of the i^th heavy metal to the assessed river basin is extremely strong.
Preferably, the ecological assessment method described above also includes the step (10), that is using the formula RI=Σi=1^N Er^i to calculate the total ecological risk comprehensive index RI caused by multiple heavy metal pollutants in the water body and then using RI to evaluate the ecological risk of the assessed river basin: when RI<150, there is a slight ecological hazard in the river basin, when 150≤RI<300, there is a medium ecological hazard in the river basin, when 300≤RI<600, there is a very strong ecological hazard in the river basin, when RI≥600, there is an extremely strong ecological hazard in the river basin.
Preferably, the BPI described in step (8) is the bioproduction index, which is determined by the burning amount and nitrogen content of the sediment samples. BPI indicates the sensitivity of water to heavy metal pollutions, namely the effects of Eh and pH of pore water in sediments, and pH, salinity, and alkalinity of overlying water on the various heavy metals in the water.
Preferably, the value of x described in step (8) is determined by the type of heavy metals that is measured. The toxicity response coefficient of Hg decreases with the increase of BPI, and the relationship between them is linear. Therefore, when the measured metal is Hg, the value of x is 1. The toxicity response coefficient of As is independent of BPI. Therefore, when the measured metal is As, the value of x is 0. The toxicity response coefficient of other heavy metals also decreases with the increase of BPI, but it is not linear. Therefore, when the measured metal is not Hg or As, the value of x is ½.

For series [2], the system named is aquatic organisms. Put plainly: Species Sensitivity Distributions (SSD) curve fitting, toxic concentration HC5. Particulars: for Toxic concentration: HC5^i, protects 95% of aquatic organisms, Table 3. Set-up: Toxic concentration: unit not given here. An excerpt: (5) collecting the chronic toxicity data of the i^th heavy metal on aquatic species selected in step (1), performing curve fitting on the collected data, and selecting the curve regression equation with the highest goodness of fit, so as to obtain the best equation for the sensitivity of the i^th heavy metal;
(6) drawing a fitting curve (Species Sensitivity Distributions, SSD) according to the best fitting equation obtained in step (5), and setting the y value of this equation, that is, the cumulative probability to 0.05, and then calculating the corresponding x value, which is the toxic concentration HC5^i of the i^th heavy metal that protects 95% of aquatic organisms;
Preferably, plotting the collected concentration values of toxicity data for different species of organisms against the quantiles arranged in concentration, and selecting the curve equation to fit based on the resulting data point distribution shape. The fitting should adopt several different functions and select the optimal regression curve, so as to avoid the systematic errors introduced by improper selection of functions. When the distribution of the toxicity data points is a common S-type, the fitting curves are preferred to use the log-Normal distribution function, the log-logistic distribution function, the log-triangular distribution function, or a combination thereof. When the distribution of the toxicity data points is different from the common S-type distribution, other curves or non-parametric methods can be used to fit the data points, for example, using the Burr type III distribution function as the regression curve equation of the toxicity data of heavy metals.
Preferably, the goodness of fit described in step (5) is determined by the toxicity data points and the judgment coefficient R^2 of the resulting curve regression equation: when the judgment coefficient R^2 of the curve regression equation gets closer to 1, the goodness of the curve regression equation for the data is higher.
Preferably, the concentration HC5^i of the i^th heavy metal that protects 95% of aquatic organisms described in step (6) is the toxicity data corresponding to the cumulative probability of 5% aquatic organisms on the fitted curve.

The subject of series [3] is aquatic organisms. Put plainly: Integration and normalization of release coefficient and HC5 to toxicity coefficient S^i. Particulars: for Toxicity coefficient: Table 4; for Square root (toxicity coefficient S^i): final step of integration and normalization, Table 3. The text has this:
(7) repeating steps (4) to (6) n times to obtain the release coefficient cs^i and toxic concentration HC5^i of each heavy metal determined in step (2), and integrating and normalizing the release coefficient cs^i and toxic concentration HC5^i of each heavy metal to obtain the toxicity coefficient S^i of the i^th heavy metal;
Preferably, the integrating and normalizing regulation described in step (7) comprises the following calculation steps:
a. calculating the reciprocal of the concentration HC5^i of the i^th heavy metal, and keeping three significant figures for each value obtained;
b. dividing each reciprocal number obtained in step a by the smallest one of them, and keeping three significant figures for each value obtained;
c. multiplying each value obtained in step b by the release coefficient cs^i of the corresponding i^th heavy metal;
d. dividing each value obtained in step c by the smallest one of them, and keeping three significant figures for each value obtained; […]

For series [4] the following is noted: cited from earlier work; for Release coefficient: Table 3.
The next series has as its system Bellamya aeruginosa. To be noted: chronic toxicity; Zoobenthos, Bellamya aeruginose; cited from earlier work.
For a further series, the system named is Scenedesmus. To be noted: chronic toxicity, Phytoplankton; cited from earlier work.
Another series deals with Bosmina. Particulars: chronic toxicity, Zooplankton; cited from earlier work.
The subject of a further series is Carp. Particulars: chronic toxicity, Fishes; cited from earlier work.
In the next series the test system is Brachionus calyciflorus. To be noted: chronic toxicity, Zooplankton; cited from earlier work.
The test system of another series is Chironomus. Particulars: chronic toxicity, Zoobenthos; cited from earlier work.
A further series deals with Pyrrophyta. To be noted: chronic toxicity, Phytoplankton; cited from earlier work.
The next series concerns Coilia nasus taihuensis. To be noted: chronic toxicity, Fishes; cited from earlier work.
The subject of a further series is Azolla pinnata. To be noted: chronic toxicity, Hydrophyte; cited from earlier work.
Another series relates to Cryptophyta. Particulars: chronic toxicity, Phytoplankton; cited from earlier work.
The test system of a further series is Arenaceous sanding. Particulars: chronic toxicity, Zooplankton; cited from earlier work.
Another series has as its system Corbicula fluminea. Particulars: chronic toxicity, Zoobenthos; cited from earlier work.
For a further series, the system named is Duckweed. To be noted: chronic toxicity, Hydrophyte; cited from earlier work.
The test system of a further series is Wild lotus. Particulars: chronic toxicity, Hydrophyte; cited from earlier work.
A further series has as its system Protosalanx hyalocranius. To be noted: chronic toxicity, Fishes; cited from earlier work.

Take `[As]` [As]: in series [1], the Toxicity response coefficient worked out at 1.50 and the Pollution risk index came to 1.05. Further, the Toxic concentration with aquatic organisms [2] is 14.9. For the same compound, in the series on aquatic organisms [3], the Toxicity coefficient is 1.50 and the “Square root (toxicity coefficient S^i)” value was 1.5. Further, the Release coefficient in [4] was 27.
In [1], `[Cd]` [Cd] displayed a Toxicity response coefficient of 24.19 and a Pollution risk index of 18.38. Moreover, in the series with aquatic organisms [2], the Toxic concentration was determined as 0.3. Besides, in the series with aquatic organisms [3], the Toxicity coefficient was 28.00 and the “Square root (toxicity coefficient S^i)” value worked out at 28. Further, in series [4], the Release coefficient was 200.
Turning to `[Cr]` [Cr], the “Toxicity data (NOEC)” value in the series with Bellamya aeruginosa was 250 µg/kg; with Scenedesmus it was 8 µg/kg; in the series with Bosmina it was 46.5 µg/kg; in the series with Carp it was 23516 µg/kg; with Brachionus calyciflorus it was 1789 µg/kg; in the series on Chironomus, 20 µg/kg. Moreover, the “Toxicity data (NOEC)” value was 671 µg/kg with Pyrrophyta; 6941 µg/kg in the series with Coilia nasus taihuensis; 625 µg/kg in the series on Azolla pinnata; 317 µg/kg in the series on Cryptophyta; 1500 µg/kg in the series on Arenaceous sanding; 1.13 µg/kg with Corbicula fluminea. In addition, the “Toxicity data (NOEC)” value in the series on Duckweed was 1000 µg/kg; in the series on Wild lotus, 123 µg/kg; in the series with Protosalanx hyalocranius, 4405 µg/kg. For the same compound, the Toxicity response coefficient in series [1] is 0.86. Also, in series [1], the Pollution risk index was determined as 0.68. Further, the Toxic concentration in the series on aquatic organisms [2] was determined as 2.42. Also, the “toxic concentration HC5^i that protects 95% of aquatic organisms” value in the series with aquatic organisms [2] (cumulative probability 0.05 on log-logistic SSD fit of chronic toxicity data) is 2.42 µg/L. This compound also came in with a Toxicity coefficient with aquatic organisms [3] of 1.00. Further, the “Square root (toxicity coefficient S^i)” value in the series on aquatic organisms [3] was found to be 1. For the same compound, the Release coefficient in [4] is on record as 2. The “release coefficient cs^1” value in [4] (from the literature) is 2×10^−3.
With `[Cu]` [Cu], in series [1], the Toxicity response coefficient stood at 14.69 and the Pollution risk index is 26.73. For the same compound, in the series on aquatic organisms [2], the Toxic concentration is reported as 0.89. For the same compound, in the series on aquatic organisms [3], the Toxicity coefficient was found to be 17.00 and the “Square root (toxicity coefficient S^i)” value is on record as 17. Besides, the Release coefficient in series [4] is on record as 200.
In series [1], `[Hg]` [Hg] came in with a Toxicity response coefficient of 20.15 and a Pollution risk index of 54.40. Moreover, the “ecological hazard to the lake” value in series [1] (class by Er^i of single metal) was “medium (when 30≤Er^i<60, the ecological hazard of the i^th heavy metal to the assessed river basin is medium)”. Also, the Toxic concentration in the series on aquatic organisms [2] turned out to be 0.53. In the series with aquatic organisms [3], the Toxicity coefficient amounted to 27.00 and the “Square root (toxicity coefficient S^i)” value stood at 27. In series [4], the Release coefficient was 320.
Turning to `[Ni]` [Ni], in series [1], the Toxicity response coefficient came to 4.75 and the Pollution risk index is recorded as 3.85. For the same compound, the Toxic concentration in the series on aquatic organisms [2] is on record as 6.03. In the series with aquatic organisms [3], the Toxicity coefficient is given as 5.50 and the “Square root (toxicity coefficient S^i)” value amounted to 5.5. In series [4], the Release coefficient is reported as 147.
With `[Pb]` [Pb], the Release coefficient in series [4] was 71.
Consider `[Zn]` [Zn], for which, in series [1], the Toxicity response coefficient came to 2.16 and the Pollution risk index came out at 2.66. Further, in the series on aquatic organisms [2], the Toxic concentration is 10.83. For the same compound, in the series with aquatic organisms [3], the Toxicity coefficient is 2.50 and the “Square root (toxicity coefficient S^i)” value was 2.5. For the same compound, the Release coefficient in series [4] is recorded as 57.
